Measurements taken from patent US6831075B2, “Heterocyclic substituted pyrazolones” (Cephalon, Inc., priority 1999, dated 2004).

Columns and labels:
Assay type in all cases: biochemical
[1] = target: T1, recombinant human baculoviral VEGFR2 cyctoplasmic domain (Homo sapiens, UniProt P35968); test: VEGFR2 kinase inhibition assay (ELISA-based, time-resolved fluorescence); settings: 1 uM compound, 30 μM ATP
T1 construct: recombinant human baculoviral VEGFR2 cyctoplasmic domain; host or cells: baculovirus expression system
T1 sequence (P35968 786-1356 limits assumed): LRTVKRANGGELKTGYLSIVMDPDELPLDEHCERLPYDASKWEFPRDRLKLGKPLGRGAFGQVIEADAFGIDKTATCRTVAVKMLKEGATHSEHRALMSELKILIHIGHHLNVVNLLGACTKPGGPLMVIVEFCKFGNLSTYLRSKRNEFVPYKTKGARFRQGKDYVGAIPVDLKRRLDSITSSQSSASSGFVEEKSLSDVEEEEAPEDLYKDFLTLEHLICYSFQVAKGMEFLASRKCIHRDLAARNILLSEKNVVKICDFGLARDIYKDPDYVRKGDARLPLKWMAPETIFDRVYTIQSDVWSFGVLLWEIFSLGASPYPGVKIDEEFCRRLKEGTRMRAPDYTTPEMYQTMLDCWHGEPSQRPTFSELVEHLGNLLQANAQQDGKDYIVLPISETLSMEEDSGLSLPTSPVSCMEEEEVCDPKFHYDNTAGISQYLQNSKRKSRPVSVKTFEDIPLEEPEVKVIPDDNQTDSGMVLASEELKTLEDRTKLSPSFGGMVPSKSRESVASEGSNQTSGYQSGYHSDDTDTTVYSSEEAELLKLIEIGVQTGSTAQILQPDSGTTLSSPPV

[2] = target: T2, baculovirus-expressed human trkA cytoplasmic domain (Homo sapiens, UniProt P04629); test: trkA tyrosine kinase inhibition assay (ELISA-based); settings: 1 uM compound; 40 μM ATP
T2 construct: baculovirus-expressed human trkA cytoplasmic domain; host or cells: baculovirus expression system
T2 sequence (P04629 440-796 limits assumed): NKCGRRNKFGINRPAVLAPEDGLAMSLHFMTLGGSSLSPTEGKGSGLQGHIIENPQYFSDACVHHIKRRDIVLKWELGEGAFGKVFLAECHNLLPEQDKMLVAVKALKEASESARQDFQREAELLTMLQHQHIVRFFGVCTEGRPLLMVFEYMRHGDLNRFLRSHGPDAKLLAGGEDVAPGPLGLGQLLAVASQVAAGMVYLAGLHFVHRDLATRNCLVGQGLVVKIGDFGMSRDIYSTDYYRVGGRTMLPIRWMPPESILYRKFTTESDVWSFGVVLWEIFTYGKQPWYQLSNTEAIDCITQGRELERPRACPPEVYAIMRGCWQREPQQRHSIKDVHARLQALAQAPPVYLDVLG
Experimental: Inhibition of trkA Tyrosine Kinase Activity
Selected heterocyclic substituted pyrazolones were tested for their ability to inhibit the kinase activity of baculovirus-expressed human trkA cytoplasmic domain using an ELISA-based assay as previously described (Angeles et al., Anal. Biochem. 236: 49-55, 1996). Briefly, a 96-well microtiter plate was coated with substrate solution (recombinant human phospholipase C-γl/glutathione S-transferase fusion protein (Rotin et al., EMBO J., 11: 559-567, 1992). Inhibition studies were performed in 100 μl assay mixtures containing 50 mM Hepes, pH 7.4, 40 μM ATP, 10 mM MnCl2, 0.1% BSA, 2% DMSO, and various concentrations of inhibitor. The reaction was initiated by addition of trkA kinase and allowed to proceed for 15 minutes at 37° C. An antibody to phosphotyrosine (UBI) was then added, followed by a secondary enzyme-conjugated antibody, alkaline phosphatase-labelled goat anti-mouse IgG (Bio-Rad). The activity of the bound enzyme was measured via an amplified detection system (Gibco-BRL). Inhibition data were analyzed using the sigmoidal dose-response (variable slope) equation in GraphPad Prism.

[3] = target: T3, baculoviral GST-MLK1KD (Homo sapiens, UniProt P80192); test: Mixed Lineage Kinase-1 inhibition assay (Millipore Multiscreen TCA in-plate, 32P); settings: for MLK-1 Kinase % inhibition @ 1 uM: 1 uM compound, 60 μM ATP
T3 construct: 1 μg/ml of baculoviral GST-MLK1KD; GST (N); host or cells: baculovirus expression system
T3 sequence (P80192 144-412 limits assumed): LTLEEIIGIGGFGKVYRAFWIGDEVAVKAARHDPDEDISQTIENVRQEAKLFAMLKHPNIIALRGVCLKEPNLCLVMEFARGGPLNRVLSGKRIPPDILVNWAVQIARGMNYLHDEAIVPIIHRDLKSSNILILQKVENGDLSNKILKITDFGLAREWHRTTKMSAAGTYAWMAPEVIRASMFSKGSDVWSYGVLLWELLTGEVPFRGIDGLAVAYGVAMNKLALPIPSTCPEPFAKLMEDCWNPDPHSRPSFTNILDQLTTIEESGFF
Experimental: Inhibition of Mixed Lineage Kinase-1 Activity
The kinase activity of MLK1 was assessed using the Millipore Multiscreen TCA “in-plate” format as described for protein kinase C (Pitt & Lee, J. Biomol. Screening, 1: 47-51, 1996). Briefly, each 50-μl assay mixture contained 20 mM Hepes, pH 7.0, 1 mM EGTA, 10 mM MgCl2, 1 mM DTT, 25 mM β-glycerophosphate, 60 μM ATP, 0.25 μCi [γ-^32P]ATP, 0.1% BSA, 500 μg/ml myelin basic protein (UBI #13-104), 2% DMSO, 1 μM of test compound, and 1 μg/ml of baculoviral GST-MLK1KD. Samples were incubated for 15 min at 37° C. The reaction was stopped by adding ice cold 50% TCA and the protein were allowed to precipitate for 30 min at 4° C. The plates were then washed with ice cold 25% TCA. Supermix scintillation cocktail was added, and the plates were allowed to equilibrate for 1-2 hours prior to counting using the Wallac MicroBeta 1450 PLUS scintillation counter.

[4] = target: T4, baculoviral GST-MLK2KDLZ (Homo sapiens, UniProt Q02779); test: Mixed Lineage Kinase-2 inhibition assay (Millipore Multiscreen plate, 32P); settings: 1 uM compound, 100 μM ATP
T4 construct: 3 μg/ml of baculoviral GST-MLK2KDLZ; GST (N); host or cells: baculovirus expression system
T4 sequence (Q02779 98-440 limits assumed): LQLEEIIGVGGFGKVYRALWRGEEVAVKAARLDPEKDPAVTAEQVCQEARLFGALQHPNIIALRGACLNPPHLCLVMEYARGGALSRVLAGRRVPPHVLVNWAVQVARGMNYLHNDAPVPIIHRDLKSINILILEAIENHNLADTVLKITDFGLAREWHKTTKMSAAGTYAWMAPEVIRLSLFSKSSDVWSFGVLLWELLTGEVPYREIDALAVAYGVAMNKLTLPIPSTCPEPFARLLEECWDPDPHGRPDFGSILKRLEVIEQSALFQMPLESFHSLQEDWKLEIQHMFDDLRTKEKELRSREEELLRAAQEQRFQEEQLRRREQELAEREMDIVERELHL
Experimental: Inhibition of Mixed Lineage Kinase-2 Activity
(§1) Assays were performed using the Millipore Multiscreen plate format as described for MLK1. Each 50-μl assay mixture contained 20 mM Hepes, pH 7, 1 mM EGTA, 10 mM MgCl2, 1 mM DTT, 25 mM β-glycerophosphate, 100 μM ATP, 0.25 μCi [γ-^32P]ATP, 0.1% BSA, 500 μg/ml myelin basic protein (UBI #13-104), 2% DMSO, various concentrations of test compound, and 3 μg/ml of baculoviral GST-MLK2KDLZ. Samples were incubated for 15 min. at 37° C. The reaction was stopped by adding ice cold 50% TCA and the proteins were allowed to precipitate for 30 min at 4° C. The plates were then washed with ice cold 25% TCA Supermix scintillation cocktail was added, and the plates were allowed to equilibrate for 1-2 hours prior to counting.

[5] = target: T5, baculoviral GST-MLK3KD (Homo sapiens, UniProt Q16584); test: Mixed Lineage Kinase-3 inhibition assay (Millipore Multiscreen plate, 32P); settings: 1 uM compound, 100 μM ATP
T5 construct: 2 μg/ml of baculoviral GST-MLK3KD; GST (N); host or cells: baculovirus expression system
T5 sequence (Q16584 117-379 limits assumed): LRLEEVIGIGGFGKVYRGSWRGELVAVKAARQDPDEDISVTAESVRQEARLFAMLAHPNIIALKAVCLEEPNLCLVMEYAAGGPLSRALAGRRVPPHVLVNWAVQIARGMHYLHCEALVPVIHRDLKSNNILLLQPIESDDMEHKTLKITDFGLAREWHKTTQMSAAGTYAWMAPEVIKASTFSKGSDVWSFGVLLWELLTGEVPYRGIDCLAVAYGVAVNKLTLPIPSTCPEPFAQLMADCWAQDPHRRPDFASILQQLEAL
Experimental: Inhibition of Mixed Lineage Kinase-3 Activity
as §1, with “MLK1. Briefly, each” for “MLK1. Each”, “and 2” for “and 3”, “baculoviral GST-MLK3KD.” for “baculoviral GST-MLK2KDLZ.”, “15 min” for “15 min.”, “25% TCA.” for “25% TCA”

Compound | VEGFR-2 kinase % inhibition @ 1 uM [1] [%] | trkA % inhibition @ 1 uM [2] [%] | MLK-1 Kinase % inhibition @ 1 uM [3] [%] | MLK-2 Kinase % inhibition @ 1 uM [4] [%] | MLK-3 Kinase % inhibition @ 1 uM [5] [%] | inhibition at 1 µM ([1]; read-out: VEGFR-2 kinase % inhibition @ 1 uM) [%] | inhibition at 1 µM [2] [%] | inhibition at 1 µM ([3]; read-out: MLK-1 Kinase % inhibition @ 1 uM) [%] | inhibition at 1 µM ([4]; read-out: MLK-2 Kinase % inhibition @ 1 uM) [%] | inhibition at 1 µM ([5]; read-out: MLK-3 Kinase % inhibition @ 1 uM) [%]
Cc1oc(-c2ccc(Cl)cc2)cc1C1=NNC(=O)C1=Cc1c[nH]c2ccccc12 [Compound 42] | 28 | 29 | −9 | −10 | 21 |  |  |  |  | 
O=C1NN=C(c2ccco2)C1=Cc1c[nH]c2ccc(OCc3ccccc3)cc12 [Compound 43] | 25 | 42 | 13 | 2 | 21 |  |  |  |  | 
O=C1NN=C(c2ccco2)C1=Cc1c[nH]c2cccc(OCc3ccccc3)c12 [Compound 44] | 18 | 23 | 25 | −3 | 28 |  |  |  |  | 
Cn1cc(C=C2C(=O)NN=C2c2ccco2)c2ccccc21 [Compound 45] | 72 | 39 | 24 | −22 | 56 |  |  |  |  | 
Cc1ccc2c(C=C3C(=O)NN=C3c3ccco3)c[nH]c2c1 [Compound 46] | 71 | 29 | 13 | 2 | 36 |  |  |  |  | 
Cc1cccc2c(C=C3C(=O)NN=C3c3ccco3)c[nH]c12 [Compound 47] | 64 | 37 | 33 | −2 | 31 |  |  |  |  | 
O=C1NN=C(c2ccco2)C1=Cc1c[nH]c2ccc(F)cc12 [Compound 48] | 58 | 47 | 2 | 3 | 31 |  |  |  |  | 
O=C1NN=C(c2ccco2)C1=Cc1c[nH]c2ccc(Cl)cc12 [Compound 49] | 50 | 56 | −10 | 3 | 21 |  |  |  |  | 
COC(=O)c1ccc2c(C=C3C(=O)NN=C3c3ccco3)c[nH]c2c1 [Compound 50] | 44 | 28 | 11 | −1 | 15 |  |  |  |  | 
COc1ccc2[nH]cc(C=C3C(=O)NN=C3c3ccco3)c2c1 [Compound 51] | 55 | 56 | 26 | 3 | 47 |  |  |  |  | 
CN(C)c1ccc(C=C2C(=O)NN=C2c2ccco2)cc1 [Compound 52] | 19 | 10 | 5 | 5 | 19 |  |  |  |  | 
Cc1nc[nH]c1C=C1C(=O)NN=C1c1ccco1 [Compound 53] | 34 | 20 | 7 | −13 | 12 |  |  |  |  | 
O=C1NN=C(c2ccco2)C1=Cc1ncc[nH]1 [Compound 54] | 4 | 20 | −12 | −48 | 0 |  |  |  |  | 
Cc1cc(C)c(C=C2C(=O)NN=C2c2cccn2C)[nH]1 [Compound 55] | 38 | 47 | −5 | 2 | 26 |  |  |  |  | 
Cn1cccc1C1=NNC(=O)C1=Cc1c[nH]c2ccc(F)cc12 [Compound 56] | 8 | 48 | −22 | −14 | −1 |  |  |  |  | 
Cc1cc(C)c(C=C2C(=O)NN=C2c2cc3ccccc3o2)[nH]1 [Compound 57, 3-benzo[d]furan-2-yl-4-[(3,5-dimethylpyrrol-2-yl)methylene]-2-pyrazolin-5-one] |  |  |  |  |  | 30 | 33 | 44 | 5 | 67
O=C1NN=C(c2cc3ccccc3o2)C1=Cc1c[nH]c2ccccc12 [Compound 58] | 47 | 30 | 44 | 4 | 43 |  |  |  |  | 
Cn1cc(C=C2C(=O)NN=C2c2cc3ccccc3o2)c2ccccc21 [Compound 59] | 14 | 40 | 41 | −8 | 47 |  |  |  |  | 
Cc1cc(C)c(C=C2C(=O)NN=C2c2cccs2)[nH]1 [Compound 61] | 75 | 35 | 8 | −4 | 72 |  |  |  |  | 
O=C1NN=C(c2cccs2)C1=Cc1c[nH]c2ccccc12 [Compound 62] | 52 | 45 | 15 | −21 | 45 |  |  |  |  | 
Cn1cc(C=C2C(=O)NN=C2c2cccs2)c2ccccc21 [Compound 63] | 75 | 60 | 14 | 1 | 78 |  |  |  |  | 
N#CCCn1cc(C=C2C(=O)NN=C2c2nccs2)c2ccccc21 [Compound 64] | 43 | 10 | 10 | 9 | 15 |  |  |  |  | 
N#CCCn1cc(C=C2C(=O)NN=C2c2ccoc2)c2ccccc21 [Compound 65] | 43 | 22 | 10 | −3 | 7 |  |  |  |  | 
